From US10759865B2, “Treatment of diabetes mellitus” (priority 2017, dated 2020)
Counter-ions that a name gives are not always drawn.

Test system: patient diagnosed with IDDM
Assay: treatment of a IDDM patient, blood IDDM markers over time
Type: in vivo, human
Set-up: Insulin Auto Ab (<0.4) / IA2 Ab (Islet cell Ab Screen) (<0.8) / Glucose / Insulin (2-19.6) / HgbA1C / GAD-65 (<5): unit not given here
Method: A patient diagnosed with IDDM was treated with 8 units of exogenous long-acting insulin per day (administered in the evening) and 1 unit of short-acting insulin per 6 grams of carbohydrate food intake (administered before each meal).
Specific stimulation high-carb diet was introduced occasionally to monitor the patient's pancreatic ability to respond to the glycemic demands.
Each IVIG dose was administered in one continuous infusion session. From week 16 to week 42, the patient was also treated with alpha one antitrypsin.
Throughout the patient's treatment, the patient's blood was drawn at the time points indicated in Tables 1-2 below, and analyzed by established testing laboratories with respect to standard IDDM blood parameters (see Tables 1-2, top row of each table listing the markers assayed; the numerical values in parenthesis after some of the markers indicate normal reference levels).
The patient was dosed at 750 mg intravenously on weeks 87, 88, 89 and 90.
Tables 1 and 2 describe the same treatment but include data points with respect to different markers tested.

[1] = week 19, 8 mg BID, also alpha one antitrypsin
[2] = week 22, 8 mg BID, also alpha one antitrypsin
[3] = week 25, 8 mg BID, also alpha one antitrypsin
[4] = week 26, 16 mg BID, also alpha one antitrypsin
[5] = week 29, 16 mg BID, also alpha one antitrypsin
[6] = week 30, 16 mg BID, also alpha one antitrypsin
[7] = week 36, 16 mg BID, also alpha one antitrypsin
[8] = week 47, 16 mg BID, IVIG 2, 1, 1 mg/Kg in week 44
[9] = week 50, 16 mg BID, IVIG weeks 44, 47.5
[10] = week 53, 16 mg BID, IVIG weeks 44, 47.5, 50.5
[11] = week 57, 16 mg BID, IVIG weeks 44-54
[12] = week 61, 16 mg BID, IVIG weeks 44-54
[13] = week 66, 16 mg BID, IVIG weeks 44-54
[14] = week 70, 16 mg BID, IVIG weeks 44-54
[15] = week 75, 16 mg BID, IVIG weeks 44-54
[16] = week 79, 5 mg QAM & 10 mg QHS, IVIG weeks 44-54
[17] = week 82.5, 10 mg BID, IVIG weeks 44-54
[18] = week 87.5, 10 mg BID, IVIG 2, 1, 1 gm/Kg week 86, Rituxan 750 mg iv week 87
[19] = week 91.25, 10 mg BID, IVIG weeks 86, 89, Rituxan 750 mg iv weeks 87-90
[20] = week 92.25, 10 mg BID, IVIG weeks 86, 89, Rituxan 750 mg iv weeks 87-90
[21] = week 99.25, 10 mg BID, IVIG weeks 86, 89, Rituxan 750 mg iv weeks 87-90

C[C@@H]1CCN(C(=O)CC#N)C[C@@H]1N(C)c1ncnc2[nH]ccc12 [tofacitinib citrate, (3R,4R)-4-methyl-3-(methyl-7H-pyrrolo[2,3-d]pyrimidin-4-ylamino)-β-oxo-1-piperidinepropanenitrile, 2-hydroxy-1,2,3-propanetricarboxylate (1:1)]
C-Peptide (0.8-3.85) (week 4, 8 mg BID): 2.66
IA2 Ab (Islet cell Ab Screen) (<0.8) (week 4, 8 mg BID): 43.8
Insulin (2-19.6) (week 4, 8 mg BID): 17.1
Insulin Auto Ab (<0.4) (week 4, 8 mg BID): 7.2
C-Peptide (0.8-3.85) (week 9, 8 mg BID): 1.5
HgbA1C (week 9, 8 mg BID): 7.2
Insulin (2-19.6) (week 9, 8 mg BID): 7.8
C-Peptide (0.8-3.85) (week 10, 8 mg BID): 4.7
IA2 Ab (Islet cell Ab Screen) (<0.8) (week 10, 8 mg BID): >50
Insulin (2-19.6) (week 10, 8 mg BID): 34.5
Insulin Auto Ab (<0.4) (week 10, 8 mg BID): 64
C-Peptide (0.8-3.85) (week 13, 8 mg BID): 1.43
Glucose (week 13, 8 mg BID): 104
IA2 Ab (Islet cell Ab Screen) (<0.8) (week 13, 8 mg BID): 46.2
Insulin Auto Ab (<0.4) (week 13, 8 mg BID): 6.1
Islet Cell Ab Titers (week 13, 8 mg BID): 320
C-Peptide (0.8-3.85) [1]: 1.79
GAD-65 (<5) [1]: <5
Glucose [1]: 126
HgbA1C [1]: 6.1
IA2 Ab (Islet cell Ab Screen) (<0.8) [1]: 37.7
Insulin (2-19.6) [1]: 12
Insulin Auto Ab (<0.4) [1]: 6.6
Islet Cell Ab Titers [1]: 80
Glucose [2]: 210
HgbA1C [2]: 6.1
Insulin (2-19.6) [2]: 24.8
Insulin Auto Ab (<0.4) [2]: 4
Islet Cell Ab Titers [2]: negative
Insulin Auto Ab (<0.4) [3]: 5.3
Islet Cell Ab Titers [3]: 20
C-Peptide (0.8-3.85) [4]: 2.19
GAD-65 (<5) [4]: <5
Glucose [4]: 93
IA2 Ab (Islet cell Ab Screen) (<0.8) [4]: 47.3
Insulin (2-19.6) [4]: 12
Insulin Auto Ab (<0.4) [4]: 5
Islet Cell Ab Titers [4]: negative
C-Peptide (0.8-3.85) [5]: 1.34
Glucose [5]: 85
HgbA1C [5]: 6.2
IA2 Ab (Islet cell Ab Screen) (<0.8) [5]: 47.7
Insulin (2-19.6) [5]: 5.4
Insulin Auto Ab (<0.4) [5]: 4.6
Islet Cell Ab Titers [5]: 20
C-Peptide (0.8-3.85) [6]: 2.74
GAD-65 (<5) [6]: <5
Glucose [6]: 143
HgbA1C [6]: 6.3
IA2 Ab (Islet cell Ab Screen) (<0.8) [6]: 43.8
Insulin (2-19.6) [6]: 34.3
Insulin Auto Ab (<0.4) [6]: 4.2
C-Peptide (0.8-3.85) [7]: 3.17
IA2 Ab (Islet cell Ab Screen) (<0.8) [7]: 46.5
Insulin (2-19.6) [7]: 31.1
Insulin Auto Ab (<0.4) [7]: 2.4
Islet Cell Ab Titers [7]: 20
HgbA1C [8]: 6.9
IA2 Ab (Islet cell Ab Screen) (<0.8) [8]: 17
Insulin Auto Ab (<0.4) [8]: 2.1
Islet Cell Ab Titers [8]: negative
C-Peptide (0.8-3.85) [9]: 2.73
HgbA1C [9]: 6.5
IA2 Ab (Islet cell Ab Screen) (<0.8) [9]: 35.7
Insulin (2-19.6) [9]: 25
Insulin Auto Ab (<0.4) [9]: 0.9
Islet Cell Ab Titers [9]: negative
C-Peptide (0.8-3.85) [10]: 2.14
GAD-65 (<5) [10]: 66
Glucose [10]: 97
HgbA1C [10]: 6.5
IA2 Ab (Islet cell Ab Screen) (<0.8) [10]: 30
Insulin (2-19.6) [10]: 14.8
Insulin Auto Ab (<0.4) [10]: 0.8
Islet Cell Ab Titers [10]: negative
C-Peptide (0.8-3.85) [11]: 5.21
GAD-65 (<5) [11]: 70
Glucose [11]: 168
HgbA1C [11]: 6.8
IA2 Ab (Islet cell Ab Screen) (<0.8) [11]: 25.9
Insulin (2-19.6) [11]: 47.3
Insulin Auto Ab (<0.4) [11]: 1
Islet Cell Ab Titers [11]: negative
C-Peptide (0.8-3.85) [12]: 4.3
GAD-65 (<5) [12]: 15
Glucose [12]: 160
HgbA1C [12]: 6.2
IA2 Ab (Islet cell Ab Screen) (<0.8) [12]: 39.4
Insulin (2-19.6) [12]: 37.2
Insulin Auto Ab (<0.4) [12]: 0.9
Islet Cell Ab Titers [12]: negative
C-Peptide (0.8-3.85) [13]: 1.38
GAD-65 (<5) [13]: 7
HgbA1C [13]: 6.5
IA2 Ab (Islet cell Ab Screen) (<0.8) [13]: 38.8
Insulin (2-19.6) [13]: 7.7
Insulin Auto Ab (<0.4) [13]: 0.9
Islet Cell Ab Titers [13]: negative
C-Peptide (0.8-3.85) [14]: 1.22
GAD-65 (<5) [14]: <5
Glucose [14]: 112
HgbA1C [14]: 6.3
IA2 Ab (Islet cell Ab Screen) (<0.8) [14]: 39.4
Insulin (2-19.6) [14]: 6.4
Insulin Auto Ab (<0.4) [14]: 1.7
Islet Cell Ab Titers [14]: negative
C-Peptide (0.8-3.85) [15]: 1.33
GAD-65 (<5) [15]: <5
Glucose [15]: 113
HgbA1C [15]: 6.2
IA2 Ab (Islet cell Ab Screen) (<0.8) [15]: 39.2
Insulin (2-19.6) [15]: 6.6
Insulin Auto Ab (<0.4) [15]: 0.7
Islet Cell Ab Titers [15]: negative
C-Peptide (0.8-3.85) [16]: 1.61
GAD-65 (<5) [16]: <5
Glucose [16]: 85
HgbA1C [16]: 6.4
IA2 Ab (Islet cell Ab Screen) (<0.8) [16]: 44.5
Insulin (2-19.6) [16]: 5.6
Insulin Auto Ab (<0.4) [16]: 0.5
Islet Cell Ab Titers [16]: negative
C-Peptide (0.8-3.85) [17]: 2.81
GAD-65 (<5) [17]: <5
Glucose [17]: 230
HgbA1C [17]: 6.9
IA2 Ab (Islet cell Ab Screen) (<0.8) [17]: 46
Insulin (2-19.6) [17]: 24.1
Insulin Auto Ab (<0.4) [17]: 0.5
Islet Cell Ab Titers [17]: negative
C-Peptide (0.8-3.85) [18]: 1.68
GAD-65 (<5) [18]: 105
Glucose [18]: 278
HgbA1C [18]: 8.1
IA2 Ab (Islet cell Ab Screen) (<0.8) [18]: 6.5
Insulin (2-19.6) [18]: 6.1
Insulin Auto Ab (<0.4) [18]: <0.4
Islet Cell Ab Titers [18]: negative
C-Peptide (0.8-3.85) [19]: 2.88
GAD-65 (<5) [19]: 131
Glucose [19]: 148
HgbA1C [19]: 7.8
IA2 Ab (Islet cell Ab Screen) (<0.8) [19]: 13.1
Insulin (2-19.6) [19]: 47.8
Insulin Auto Ab (<0.4) [19]: <0.4
Islet Cell Ab Titers [19]: negative
C-Peptide (0.8-3.85) [20]: 2.36
GAD-65 (<5) [20]: 48
Glucose [20]: 148
HgbA1C [20]: 7.1
IA2 Ab (Islet cell Ab Screen) (<0.8) [20]: 25.6
Insulin (2-19.6) [20]: 33.7
Insulin Auto Ab (<0.4) [20]: 0.5
Islet Cell Ab Titers [20]: negative
C-Peptide (0.8-3.85) [21]: 1.41
GAD-65 (<5) [21]: 24
Glucose [21]: 170
HgbA1C [21]: 6.9
IA2 Ab (Islet cell Ab Screen) (<0.8) [21]: 26.5
Insulin (2-19.6) [21]: 14.3
Insulin Auto Ab (<0.4) [21]: 0.7
Islet Cell Ab Titers [21]: 20
